# Data from patent publication US7517657B2, “Peptides for detecting anti-double stranded DNA antibody and uses thereof” (Albert Einstein College of Medicine of Yeshiva University, priority 1995, dated 2009).
# Legend:
# [1] = tested on: production of anti-dsDNA antibodies; experiment: Immunization of nonautoimmune BALB/c mice with peptide in complete Freund's adjuvant; type: in vivo; conditions: unpublished work
# Source text: It is also noteworthy that both the R4A and 52b3 peptides have aromatic residues, tryptophan and tyrosine. […] This apparent difference in specificity is consistent with the finding that they bind distinct peptides. It is also noteworthy that both the R4A and 52b3 consensus motifs have aromatic residues, tryptophan and tyrosine. It is tempting to speculate that the negatively charged aspartate and glutamate residues are analogous to phosphate groups, the aromatic tryptophan residues are analogous to the pentose sugar backbone, and the tyrosine and serine residues are analogous to the hydroxyl groups attached to the pentose moiety in the DNA molecule, thus explaining why these peptides are mimics of DNA. One potential utility of identifying peptide mimotopes for dsDNA is to try to determine if the actual eliciting antigen for production of these antibodies or target antigen for deposition in kidneys might be a protein molecule. […] It is interesting to speculate whether the murine homolog of chicken collagen XIV also has a splice variant containing the same or highly homologous peptide sequence that would be recognized by the R4A antibody.
# R4A binding to dsDNA = experiment: Peptide inhibition of R4A binding to dsDNA by ELISA; set-up: species or system mouse; conditions: fluid phase inhibitor, FIG. 3, FIG. 4
# Protocol: FIG. 3 depicts peptide inhibition of R4A (1 μg/ml) binding to calf thymus double stranded DNA by Enzyme Linked ImmunoSorbent Assay.
# FIG. 4 sets forth a graph representing DWEYS (L and D peptides) (SEQ ID NO:2) inhibition of R4A binding to dsDNA. IMMULON® II plates were coated overnight with 100 μg/ml salmon sperm dsDNA. R4A at a final concentration of 5 μg/ml was incubated at varying concentrations of L or D DWEYS (SEQ ID NO:2) and transferred to the plate precoated with dsDNA. After a 2-hr incubation at 37° C., the plates were washed, and alkaline phosphotase-linked goat anti-mouse IgG2b antibody was added for 1 hour at 37° C. OD after addition of substrate was monitored at 405 nm.
substance,measurement,setting,value
Asp-Trp-Glu-Tyr-Ser (DWEYS; printed: Asp-Trp-Glu-Tyr-Ser),Production of anti-dsDNA antibodies after immunization,[1],leads to production of anti-dsDNA antibodies
same,Inhibition of R4A binding to dsDNA,R4A binding to dsDNA,inhibited dsDNA binding by the appropriate antibody only
